Where two headings read alike, the source gives them in different places.
Columns and labels:
Test in all cases: DiscoverX KINOMEscan kinase profiling (468 assays)
Format in all cases: binding
[1] = target: human kinome (Homo sapiens, UniProt Q08881); conditions: ITK; 100 nM; read-out: Percent Control
In short: (§1)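 VIP152 was run in DMSO, alongside a DMSO control. Readout was qPCR of DNA-tagged kinase still bound to bead-immobilized biotinylated kinase ligands after compound competition.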

[2] = target: human kinome (Homo sapiens, UniProt P51812); conditions: compound concentration 1000 nM, read-out: Percent Control
In short: as §1

[3] = target: human kinome (Homo sapiens, UniProt Q9NYL2); conditions: kinase ZAK (Entrez ZAK); compound concentration 1000 nM; read-out: Percent Control
In short: as §1

[4] = target: human kinome (Homo sapiens, UniProt Q16566); conditions: CAMK4; 100 nM; read-out: Percent Control
In short: as §1

[5] = target: human kinome (Homo sapiens, UniProt O94768); conditions: DRAK2 (Entrez STK17B); 100 nM; read-out: Percent Control
In short: as §1

[6] = target: human kinome (Homo sapiens, UniProt Q12866); conditions: MERTK; 100 nM; read-out: Percent Control
In short: as §1

[7] = target: human kinome (Homo sapiens, UniProt P04629); conditions: kinase TRKA (Entrez NTRK1); compound concentration 1000 nM; read-out: Percent Control
In short: as §1

[8] = target: human kinome (Homo sapiens, UniProt O94921); conditions: read-out: Percent Control
In short: as §1

[9] = target: human kinome (Homo sapiens, UniProt Q32MK0); conditions: MLCK (Entrez MYLK3); 100 nM; read-out: Percent Control
In short: as §1

[10] = target: human kinome (Homo sapiens, UniProt O14733); conditions: MKK7 (Entrez MAP2K7); 100 nM; read-out: Percent Control
In short: as §1

[11] = target: human kinome (Homo sapiens, UniProt P42685); conditions: FRK; 100 nM; read-out: Percent Control
In short: as §1

[12] = target: human kinome (Homo sapiens, UniProt O75747); conditions: read-out: Percent Control
In short: as §1

[13] = target: human kinome (Homo sapiens, UniProt Q9Y2H1); conditions: read-out: Percent Control
In short: as §1

[14] = target: human kinome (Homo sapiens, UniProt Q9Y4K4); conditions: MAP4K5; 100 nM; read-out: Percent Control
In short: as §1

[15] = target: human kinome (Homo sapiens, UniProt P20794); conditions: MAK; 100 nM; read-out: Percent Control
In short: as §1

[16] = target: human kinome (Homo sapiens, UniProt Q8TF76); conditions: HASPIN (Entrez GSG2); 100 nM; read-out: Percent Control
In short: as §1

[17] = target: human kinome (Homo sapiens, UniProt Q13043); conditions: MST1 (Entrez STK4); 100 nM; read-out: Percent Control
In short: as §1

[18] = target: human kinome (Homo sapiens, UniProt Q8NI60); conditions: ADCK3 (Entrez CABC1); 100 nM; read-out: Percent Control
In short: as §1

[19] = target: human kinome (Homo sapiens, UniProt P43405); conditions: kinase SYK (Entrez SYK); compound concentration 1000 nM; read-out: Percent Control
In short: as §1

[20] = target: human kinome (Homo sapiens, UniProt O15146); conditions: MUSK; 100 nM; read-out: Percent Control
In short: as §1

[21] = target: human kinome (Homo sapiens, UniProt Q15139); conditions: read-out: Percent Control
In short: as §1

[22] = target: human kinome (Homo sapiens, UniProt Q92918); conditions: HPK1 (Entrez MAP4K1); 100 nM; read-out: Percent Control
In short: as §1

[23] = target: human kinome (Homo sapiens, UniProt Q9BYT3); conditions: kinase STK33 (Entrez STK33); compound concentration 1000 nM; read-out: Percent Control
In short: as §1

[24] = target: human kinome (Homo sapiens, UniProt Q13131); conditions: AMPK-alpha1 (Entrez PRKAA1); 100 nM; read-out: Percent Control
In short: as §1

[25] = target: human kinome (Homo sapiens, UniProt P10721, A829P); conditions: KIT(A829P); 100 nM; read-out: Percent Control
In short: as §1

[26] = target: human kinome (Homo sapiens, UniProt O75385); conditions: kinase ULK1 (Entrez ULK1); compound concentration 1000 nM; read-out: Percent Control
In short: as §1

[27] = target: human kinome (Homo sapiens, UniProt Q96GD4); conditions: AURKB; 100 nM; read-out: Percent Control
In short: as §1

[28] = target: human kinome (Homo sapiens, UniProt Q9UEE5); conditions: DRAK1 (Entrez STK17A); 100 nM; read-out: Percent Control
In short: as §1

[29] = target: human kinome (Homo sapiens, UniProt P07948); conditions: LYN; 100 nM; read-out: Percent Control
In short: as §1

[30] = target: human kinome (Homo sapiens, UniProt O95835); conditions: LATS1; 100 nM; read-out: Percent Control
In short: as §1

Sequence of human kinome (Homo sapiens, UniProt O75747) (O75747 whole entry): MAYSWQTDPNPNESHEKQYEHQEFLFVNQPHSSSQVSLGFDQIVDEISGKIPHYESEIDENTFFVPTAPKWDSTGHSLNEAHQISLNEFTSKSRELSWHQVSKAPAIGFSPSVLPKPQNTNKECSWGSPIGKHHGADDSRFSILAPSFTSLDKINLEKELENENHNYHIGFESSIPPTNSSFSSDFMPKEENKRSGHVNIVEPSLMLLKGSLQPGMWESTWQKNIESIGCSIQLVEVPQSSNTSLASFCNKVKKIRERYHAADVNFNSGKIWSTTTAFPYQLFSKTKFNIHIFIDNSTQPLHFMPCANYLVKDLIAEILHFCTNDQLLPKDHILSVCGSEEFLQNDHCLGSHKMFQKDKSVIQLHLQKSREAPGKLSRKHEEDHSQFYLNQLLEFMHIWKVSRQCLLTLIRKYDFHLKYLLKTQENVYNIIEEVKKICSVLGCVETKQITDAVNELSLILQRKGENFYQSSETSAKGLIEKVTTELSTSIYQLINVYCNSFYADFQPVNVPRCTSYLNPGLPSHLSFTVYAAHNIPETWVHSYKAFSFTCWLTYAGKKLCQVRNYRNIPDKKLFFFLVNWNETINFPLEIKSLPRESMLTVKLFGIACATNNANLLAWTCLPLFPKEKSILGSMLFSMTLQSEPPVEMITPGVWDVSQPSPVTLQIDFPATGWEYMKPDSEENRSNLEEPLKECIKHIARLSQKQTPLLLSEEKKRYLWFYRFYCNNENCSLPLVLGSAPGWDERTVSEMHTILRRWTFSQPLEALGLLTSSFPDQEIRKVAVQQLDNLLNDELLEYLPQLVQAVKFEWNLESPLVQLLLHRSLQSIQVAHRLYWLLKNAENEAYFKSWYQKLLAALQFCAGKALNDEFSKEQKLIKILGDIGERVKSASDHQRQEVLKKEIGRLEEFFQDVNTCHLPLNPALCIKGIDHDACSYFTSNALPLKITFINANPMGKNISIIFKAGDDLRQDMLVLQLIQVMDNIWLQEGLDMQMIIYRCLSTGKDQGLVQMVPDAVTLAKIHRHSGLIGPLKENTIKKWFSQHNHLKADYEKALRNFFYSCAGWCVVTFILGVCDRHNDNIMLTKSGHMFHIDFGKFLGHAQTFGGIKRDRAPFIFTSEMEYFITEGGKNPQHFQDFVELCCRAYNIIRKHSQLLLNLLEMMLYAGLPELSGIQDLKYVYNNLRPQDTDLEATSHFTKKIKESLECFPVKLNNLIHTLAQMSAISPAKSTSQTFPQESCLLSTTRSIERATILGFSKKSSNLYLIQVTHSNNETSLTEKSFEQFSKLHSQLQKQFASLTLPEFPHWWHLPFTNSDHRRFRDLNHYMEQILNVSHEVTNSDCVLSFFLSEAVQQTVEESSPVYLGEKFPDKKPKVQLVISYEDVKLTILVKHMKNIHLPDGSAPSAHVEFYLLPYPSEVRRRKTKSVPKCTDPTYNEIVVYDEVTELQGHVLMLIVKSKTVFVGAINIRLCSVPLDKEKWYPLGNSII
Sequence of human kinome (Homo sapiens, UniProt Q9Y2H1) (Q9Y2H1 whole entry): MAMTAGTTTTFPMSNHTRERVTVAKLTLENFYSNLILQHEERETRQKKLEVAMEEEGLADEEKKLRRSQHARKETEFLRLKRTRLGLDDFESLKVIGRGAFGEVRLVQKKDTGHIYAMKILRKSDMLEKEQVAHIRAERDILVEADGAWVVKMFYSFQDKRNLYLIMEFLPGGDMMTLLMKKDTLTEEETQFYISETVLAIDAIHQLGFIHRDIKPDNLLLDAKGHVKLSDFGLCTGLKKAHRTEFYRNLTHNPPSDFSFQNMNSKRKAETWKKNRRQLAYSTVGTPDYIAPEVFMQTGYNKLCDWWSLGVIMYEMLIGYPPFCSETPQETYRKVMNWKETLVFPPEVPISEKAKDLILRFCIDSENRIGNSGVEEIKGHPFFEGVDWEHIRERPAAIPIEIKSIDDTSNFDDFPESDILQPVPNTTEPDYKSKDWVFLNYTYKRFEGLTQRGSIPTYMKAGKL
Sequence of human kinome (Homo sapiens, UniProt O94921) (O94921 whole entry): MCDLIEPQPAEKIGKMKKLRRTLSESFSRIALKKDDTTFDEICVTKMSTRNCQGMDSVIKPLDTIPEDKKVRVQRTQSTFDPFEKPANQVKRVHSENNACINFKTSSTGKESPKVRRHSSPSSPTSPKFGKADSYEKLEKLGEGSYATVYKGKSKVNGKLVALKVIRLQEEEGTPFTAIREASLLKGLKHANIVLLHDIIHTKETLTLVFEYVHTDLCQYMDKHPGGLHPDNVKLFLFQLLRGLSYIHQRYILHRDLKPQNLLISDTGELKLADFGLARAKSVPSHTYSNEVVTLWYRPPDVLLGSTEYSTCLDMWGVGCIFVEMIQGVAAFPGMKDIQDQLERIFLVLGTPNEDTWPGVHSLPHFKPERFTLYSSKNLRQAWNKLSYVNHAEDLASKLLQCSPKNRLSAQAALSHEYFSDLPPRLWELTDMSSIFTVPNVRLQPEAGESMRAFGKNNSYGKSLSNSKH
Sequence of human kinome (Homo sapiens, UniProt P51812) (P51812 whole entry): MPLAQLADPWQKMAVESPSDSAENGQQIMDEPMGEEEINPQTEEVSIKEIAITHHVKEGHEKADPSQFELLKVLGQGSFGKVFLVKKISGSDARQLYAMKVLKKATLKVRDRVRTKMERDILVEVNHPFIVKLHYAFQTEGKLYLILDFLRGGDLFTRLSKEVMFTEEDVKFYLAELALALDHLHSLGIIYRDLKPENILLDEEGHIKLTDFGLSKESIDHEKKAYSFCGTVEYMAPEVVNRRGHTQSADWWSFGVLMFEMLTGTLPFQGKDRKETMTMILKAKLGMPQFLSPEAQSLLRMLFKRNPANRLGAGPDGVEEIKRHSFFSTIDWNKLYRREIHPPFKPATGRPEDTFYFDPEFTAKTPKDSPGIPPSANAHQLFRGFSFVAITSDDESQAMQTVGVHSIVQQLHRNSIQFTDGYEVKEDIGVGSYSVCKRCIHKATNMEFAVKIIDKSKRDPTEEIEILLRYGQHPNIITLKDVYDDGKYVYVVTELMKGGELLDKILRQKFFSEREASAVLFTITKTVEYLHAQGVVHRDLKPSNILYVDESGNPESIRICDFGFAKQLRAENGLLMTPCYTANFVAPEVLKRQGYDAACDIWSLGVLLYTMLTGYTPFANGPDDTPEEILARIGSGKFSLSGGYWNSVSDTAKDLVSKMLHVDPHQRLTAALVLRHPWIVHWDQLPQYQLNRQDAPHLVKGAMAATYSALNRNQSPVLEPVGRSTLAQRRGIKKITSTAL
Sequence of human kinome (Homo sapiens, UniProt Q15139) (Q15139 whole entry): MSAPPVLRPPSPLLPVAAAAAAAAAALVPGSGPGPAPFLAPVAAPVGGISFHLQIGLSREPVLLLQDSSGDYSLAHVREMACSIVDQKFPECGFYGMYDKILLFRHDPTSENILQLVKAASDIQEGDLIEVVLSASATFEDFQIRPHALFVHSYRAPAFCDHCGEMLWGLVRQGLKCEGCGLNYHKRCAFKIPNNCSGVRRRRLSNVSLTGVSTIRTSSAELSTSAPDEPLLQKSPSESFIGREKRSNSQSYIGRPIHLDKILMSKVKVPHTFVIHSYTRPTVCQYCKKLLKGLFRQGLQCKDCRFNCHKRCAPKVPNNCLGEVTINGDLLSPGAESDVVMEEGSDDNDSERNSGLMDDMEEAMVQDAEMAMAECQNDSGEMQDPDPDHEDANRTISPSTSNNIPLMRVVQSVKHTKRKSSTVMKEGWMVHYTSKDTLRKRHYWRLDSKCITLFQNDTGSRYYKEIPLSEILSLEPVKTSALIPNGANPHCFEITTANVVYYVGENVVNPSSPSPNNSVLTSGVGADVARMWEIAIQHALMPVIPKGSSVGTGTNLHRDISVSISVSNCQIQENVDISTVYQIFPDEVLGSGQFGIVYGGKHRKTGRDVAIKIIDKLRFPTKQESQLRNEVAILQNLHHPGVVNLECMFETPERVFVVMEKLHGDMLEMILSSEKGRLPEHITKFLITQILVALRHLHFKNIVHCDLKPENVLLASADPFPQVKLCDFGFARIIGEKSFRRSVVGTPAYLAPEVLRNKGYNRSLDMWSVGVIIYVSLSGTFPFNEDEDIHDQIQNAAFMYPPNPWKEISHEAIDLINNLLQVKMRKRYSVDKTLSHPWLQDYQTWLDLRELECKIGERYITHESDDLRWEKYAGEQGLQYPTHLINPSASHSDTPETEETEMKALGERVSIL
Sequence of human kinome (Homo sapiens, UniProt P10721, A829P) (P10721 26-976 A829P): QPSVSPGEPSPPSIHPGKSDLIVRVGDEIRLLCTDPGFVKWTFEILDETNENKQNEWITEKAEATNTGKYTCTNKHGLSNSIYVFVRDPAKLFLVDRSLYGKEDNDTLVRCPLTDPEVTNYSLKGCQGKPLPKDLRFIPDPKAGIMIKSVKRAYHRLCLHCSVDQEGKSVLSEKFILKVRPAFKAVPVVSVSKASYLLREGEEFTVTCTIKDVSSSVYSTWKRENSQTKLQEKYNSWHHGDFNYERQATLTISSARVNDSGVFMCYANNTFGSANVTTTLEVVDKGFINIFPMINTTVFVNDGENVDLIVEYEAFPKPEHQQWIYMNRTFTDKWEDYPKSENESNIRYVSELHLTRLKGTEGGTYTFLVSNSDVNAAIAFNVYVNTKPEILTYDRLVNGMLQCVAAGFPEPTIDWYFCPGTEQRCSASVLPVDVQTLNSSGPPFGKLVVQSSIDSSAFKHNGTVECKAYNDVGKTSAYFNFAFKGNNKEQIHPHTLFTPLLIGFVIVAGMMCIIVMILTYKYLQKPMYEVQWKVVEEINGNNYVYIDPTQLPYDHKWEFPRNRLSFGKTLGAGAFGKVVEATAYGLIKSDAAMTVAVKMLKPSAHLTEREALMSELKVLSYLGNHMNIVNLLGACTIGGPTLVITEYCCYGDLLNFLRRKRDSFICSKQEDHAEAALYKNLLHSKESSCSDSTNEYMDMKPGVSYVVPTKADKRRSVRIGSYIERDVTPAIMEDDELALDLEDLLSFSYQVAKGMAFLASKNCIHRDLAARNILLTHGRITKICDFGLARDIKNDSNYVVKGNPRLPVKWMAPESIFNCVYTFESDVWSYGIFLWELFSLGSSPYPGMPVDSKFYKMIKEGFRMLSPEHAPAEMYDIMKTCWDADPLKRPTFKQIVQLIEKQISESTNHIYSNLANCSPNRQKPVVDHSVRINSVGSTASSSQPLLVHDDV

Q: For `COc1cc(F)ccc1-c1cc(Nc2cc(CS(C)(=N)=O)ccn2)ncc1F` (centres unmarked) [VIP152], which remaining binding at 0.1 µM [1] is on record?
A: The remaining binding at 0.1 µM was 100%.

Q: What about the remaining binding at 1 µM ([2]; kinase RSK2(Kin.Dom.1-N-terminal) (Entrez RPS6KA3)) of the same compound?
A: Its remaining binding at 1 µM is 60%.

Q: What about the remaining binding at 1 µM ([2]; kinase RSK2(Kin.Dom.2-C-terminal) (Entrez RPS6KA3)) of the same compound?
A: The remaining binding at 1 µM was 80%.

Q: And the remaining binding at 1 µM [3]?
A: The remaining binding at 1 µM was 79%.

Q: And the remaining binding at 0.1 µM [4]?
A: The remaining binding at 0.1 µM was 100%.

Q: What about the remaining binding at 0.1 µM [5] of the same compound?
A: Its remaining binding at 0.1 µM is 100%.

Q: And the remaining binding at 0.1 µM [6]?
A: Its remaining binding at 0.1 µM is 100%.

Q: What about the remaining binding at 1 µM [7] of the same compound?
A: The remaining binding at 1 µM was 9.8%.

Q: What about the remaining binding at 0.1 µM ([8]; PFTK1 (Entrez CDK14), 100 nM) of the same compound?
A: The remaining binding at 0.1 µM was 100%.

Q: And the remaining binding at 1 µM ([8]; kinase PFTK1 (Entrez CDK14), compound concentration 1000 nM)?
A: The remaining binding at 1 µM was 84%.

Q: And the remaining binding at 0.1 µM [9]?
A: Its remaining binding at 0.1 µM is 100%.

Q: What about the remaining binding at 0.1 µM [10] of the same compound?
A: The remaining binding at 0.1 µM was 86%.

Q: And the remaining binding at 0.1 µM [11]?
A: Its remaining binding at 0.1 µM is 100%.

Q: And the remaining binding at 0.1 µM ([12]; PIK3C2G, 100 nM)?
A: Its remaining binding at 0.1 µM is 100%.

Q: And the remaining binding at 1 µM ([12]; kinase PIK3C2G (Entrez PIK3C2G), compound concentration 1000 nM)?
A: Its remaining binding at 1 µM is 94%.

Q: What about the remaining binding at 0.1 µM ([13]; NDR2 (Entrez STK38L), 100 nM) of the same compound?
A: The remaining binding at 0.1 µM was 100%.

Q: What about the remaining binding at 1 µM ([13]; kinase NDR2 (Entrez STK38L), compound concentration 1000 nM) of the same compound?
A: The remaining binding at 1 µM was 100%.

Q: What about the remaining binding at 0.1 µM [14] of the same compound?
A: Its remaining binding at 0.1 µM is 94%.

Q: What about the remaining binding at 0.1 µM [15] of the same compound?
A: The remaining binding at 0.1 µM was 100%.

Q: And the remaining binding at 0.1 µM [16]?
A: The remaining binding at 0.1 µM was 93%.

Q: What about the remaining binding at 0.1 µM [17] of the same compound?
A: Its remaining binding at 0.1 µM is 99%.

Q: What about the remaining binding at 0.1 µM [18] of the same compound?
A: The remaining binding at 0.1 µM was 100%.

Q: And the remaining binding at 1 µM [19]?
A: The remaining binding at 1 µM was 38%.

Q: What about the remaining binding at 0.1 µM [20] of the same compound?
A: Its remaining binding at 0.1 µM is 99%.

Q: What about the remaining binding at 0.1 µM ([21]; PRKD1, 100 nM) of the same compound?
A: The remaining binding at 0.1 µM was 71%.

Q: What about the remaining binding at 1 µM ([21]; kinase PRKD1 (Entrez PRKD1), compound concentration 1000 nM) of the same compound?
A: Its remaining binding at 1 µM is 100%.

Q: What about the remaining binding at 0.1 µM [22] of the same compound?
A: Its remaining binding at 0.1 µM is 90%.

Q: And the remaining binding at 1 µM [23]?
A: The remaining binding at 1 µM was 84%.

Q: What about the remaining binding at 0.1 µM [24] of the same compound?
A: The remaining binding at 0.1 µM was 89%.

Q: And the remaining binding at 0.1 µM [25]?
A: The remaining binding at 0.1 µM was 100%.

Q: What about the remaining binding at 1 µM [26] of the same compound?
A: The remaining binding at 1 µM was 90%.

Q: And the remaining binding at 0.1 µM [27]?
A: Its remaining binding at 0.1 µM is 99%.

Q: And the remaining binding at 0.1 µM [28]?
A: The remaining binding at 0.1 µM was 100%.

Q: And the remaining binding at 0.1 µM [29]?
A: Its remaining binding at 0.1 µM is 100%.

Q: And the remaining binding at 0.1 µM [30]?
A: Its remaining binding at 0.1 µM is 100%.
